Assays:
Assay type in all cases: physicochemical
[1] = Specific powder surface area by nitrogen gas sorption (BET); settings: triplicate, trihydrate
Description: Specific powder surface area was determined using nitrogen gas sorption (Smartsorb, Smart Instruments, Mumbai, India). Prior to measurements, samples were regenerated by degassing to remove moisture and contamination. The regenerated sample was dipped in liquid nitrogen and the quantity of the adsorbed gas was measured using a thermal conductivity detector and subsequently integrated using an electronic circuit in terms of counts. The instrument was calibrated by injecting a known quantity of nitrogen. The measured parameters were subsequently used to calculate the surface area of the sample by employing the adsorption theories of Brunauer, Emmett and Teller (BET).
(§1) Parameters operated were: • Augar Speed: 5-90 rpm • Primary Air Pressure: 2-8 kg·cm^−2 • Secondary Air Pressure: 4-10 kg·cm^−2 The surface area (in triplicate), average particle size and contact angle (in quadruplicate) were determined as outlined in the General section. The purity of the amoxicillin trihydrate samples was 99.4±0.3% and were void of dichloromethane, isopropanol, pivalic acid and triethyl amine.

[2] = Powder dissolution, USP/NF paddle method with HPLC analysis; settings: 500 mg in 900 mL water, 37 °C, 75 rpm; for Amoxicillin released in solution Mean: mean of 3; for Amoxicillin released in solution #1: replicate #1; for Amoxicillin released in solution #2: replicate #2; for Amoxicillin released in solution #3: replicate #3
Description: Dissolution analysis of amoxicillin trihydrate powder samples was carried out using the USP/NF paddle method at a rotational speed of 75 rpm. Ultrapure ELGA laboratory water (900 mL) was used as dissolution medium. Media were equilibrated to 37.0±0.5° C. prior to dissolution. Amoxicillin trihydrate sample powder (500 mg) was directly added to the dissolution apparatus (Electrolab USP-24, India). Samples were collected at 0, 1, 3, 5, 10, 15, 30, 60 and 90 min, filtered through 0.2 μm filters and analyzed by HPLC. Dissolution profiles were constructed by plotting the percentage amoxicillin released against time.
The HPLC system (Shimadzu Corporation, Kyoto, Japan) comprised of an SCL-10A VP system controller, LC-10AT VP liquid chromatograph, FCV-10AL VP flow control valve, DGU-14A degasser, SIL-10AD VP auto-injector, CTO-10AS VP column oven, SPD-M20A prominence diode array (PDA) detector and data acquisition Class-VP 6.10 software. The HPLC method was adopted from the United States Pharmacopoeia (USP). The method was validated for linearity, precision, accuracy and intra- and inter-day variability. The mobile phase was 50 mM monobasic potassium phosphate:methanol (96:4, v/v, pH 5.0). All analyses were carried out using Lichrospher® 100 RP-18e analytical column (5 μm, Merck KGaA, Darmstadt, Germany) under isocratic conditions at a flow rate of 1.0 mL·min^−1 at 25° C. with 20 μL injection volume. Effluent was monitored at a wavelength of 230 nm. Samples for calibration curve generation were prepared in 50 mM monobasic potassium phosphate:methanol 1:1 (v/v) proportion at a concentration range of 1 to 600 μg·mL^−1.
The three non-micronized (i.e. entries 1-3 of Table 1) and micronized (i.e. entries 4-6 of Table 1) amoxicillin trihydrate samples of Example 1 were subjected to a powder dissolution test (in triplicate) as outlined in the General section.

[3] = Contact angle by sessile drop method (water); settings: ambient conditions, trihydrate
Description: Contact angles of amoxicillin trihydrate powder samples were measured by the sessile drop method using an Drop Shape Analyzer instrument (FTA 1000, First Ten Angstrom, Virginia, USA). Powder samples were mounted on double sided adhesive tape adhered to a glass slide and excess powder was removed by tapping the slide. A drop of probe liquid (water) was dispersed onto the sample surface and video images were captured by the FTA image analyzer. The contact angle was calculated by the instrument by fitting a mathematical expression to the shape of the drop followed by calculating the slope of the tangent to the drop at the liquid-solid-vapor interface line. The surface tension of ultrapure ELGA laboratory water was measured to be 73±0.5 mN·m^−1 at 25° C. All measurements were performed in air under ambient conditions and an average of four measurements was reported in the below Examples.
as §1

[4] = Particle size distribution by laser diffraction (Malvern); settings: trihydrate
Description: Particle size distribution values D10, D50, D90 and D100 were determined using laser diffraction applying Malvern equipment. A suitable apparatus for determining D10, D50, D90 and D100 is a Malvern particle sizer 2600 C or a Malvern Zeta Sizer.
as §1

CC1(C)S[C@@H]2[C@H](NC(=O)[C@H](N)c3ccc(O)cc3)C(=O)N2[C@H]1C(=O)O.O.O.O [entry 3, amoxicillin trihydrate]
Surface Area Mean ± SD (n = 3) [1]: 0.72 ± 0.16 m^2 · g^−1 | Amoxicillin released in solution Mean ([2]; 0 min): 0% | Amoxicillin released in solution #1 ([2]; 0 min): 0% | Amoxicillin released in solution #2 ([2]; 0 min): 0% | Amoxicillin released in solution #3 ([2]; 0 min): 0% | Amoxicillin released in solution Mean ([2]; 1 min, trihydrate): 59.73% | Amoxicillin released in solution #1 ([2]; 1 min, trihydrate): 57.32% | Amoxicillin released in solution #2 ([2]; 1 min, trihydrate): 60.63% | Amoxicillin released in solution #3 ([2]; 1 min, trihydrate): 61.23% | Amoxicillin released in solution Mean ([2]; 3 min, trihydrate): 97.65% | Amoxicillin released in solution #1 ([2]; 3 min, trihydrate): 96.94% | Amoxicillin released in solution #2 ([2]; 3 min, trihydrate): 97.25% | Amoxicillin released in solution #3 ([2]; 3 min, trihydrate): 98.77% | Amoxicillin released in solution Mean ([2]; 5 min, trihydrate): 99.78% | Amoxicillin released in solution #1 ([2]; 5 min, trihydrate): 99.68% | Amoxicillin released in solution #2 ([2]; 5 min, trihydrate): 100.87% | Amoxicillin released in solution #3 ([2]; 5 min, trihydrate): 98.80% | Amoxicillin released in solution Mean ([2]; 10 min, trihydrate): 99.25% | Amoxicillin released in solution #1 ([2]; 10 min, trihydrate): 99.06% | Amoxicillin released in solution #2 ([2]; 10 min, trihydrate): 99.42% | Amoxicillin released in solution #3 ([2]; 10 min, trihydrate): 99.27% | Amoxicillin released in solution Mean ([2]; 15 min, trihydrate): 100.29% | Amoxicillin released in solution #1 ([2]; 15 min, trihydrate): 100.69% | Amoxicillin released in solution #2 ([2]; 15 min, trihydrate): 100.64% | Amoxicillin released in solution #3 ([2]; 15 min, trihydrate): 99.55% | Amoxicillin released in solution Mean ([2]; 30 min, trihydrate): 99.18% | Amoxicillin released in solution #1 ([2]; 30 min, trihydrate): 99.21% | Amoxicillin released in solution #2 ([2]; 30 min, trihydrate): 99.18% | Amoxicillin released in solution #3 ([2]; 30 min, trihydrate): 99.14% | Amoxicillin released in solution Mean ([2]; 60 min, trihydrate): 100.16% | Amoxicillin released in solution #1 ([2]; 60 min, trihydrate): 99.14% | Amoxicillin released in solution #2 ([2]; 60 min, trihydrate): 100.41% | Amoxicillin released in solution #3 ([2]; 60 min, trihydrate): 100.92% | Amoxicillin released in solution Mean ([2]; 90 min, trihydrate): 99.44% | Amoxicillin released in solution #1 ([2]; 90 min, trihydrate): 99.58% | Amoxicillin released in solution #2 ([2]; 90 min, trihydrate): 99.28% | Amoxicillin released in solution #3 ([2]; 90 min, trihydrate): 99.46% | Contact Angle Mean ± SD (n = 4) [3]: 71.54 ± 1.08 | Average Particle Size D10 [4]: 13.1 μm | Average Particle Size D50 [4]: 39.3 μm | Average Particle Size D90 [4]: 91.7 μm | Average Particle Size D100 [4]: 230.1 μm

CC1(C)S[C@@H]2[C@H](NC(=O)[C@H](N)c3ccc(O)cc3)C(=O)N2[C@H]1C(=O)O.O.O.O [entry 4, amoxicillin trihydrate]
Surface Area Mean ± SD (n = 3) [1]: 1.78 ± 0.03 m^2 · g^−1 | Amoxicillin released in solution Mean ([2]; 0 min): 0% | Amoxicillin released in solution #1 ([2]; 0 min): 0% | Amoxicillin released in solution #2 ([2]; 0 min): 0% | Amoxicillin released in solution #3 ([2]; 0 min): 0% | Amoxicillin released in solution Mean ([2]; 1 min, trihydrate): 56.64% | Amoxicillin released in solution #1 ([2]; 1 min, trihydrate): 54.49% | Amoxicillin released in solution #2 ([2]; 1 min, trihydrate): 57.74% | Amoxicillin released in solution #3 ([2]; 1 min, trihydrate): 57.67% | Amoxicillin released in solution Mean ([2]; 3 min, trihydrate): 77.11% | Amoxicillin released in solution #1 ([2]; 3 min, trihydrate): 76.32% | Amoxicillin released in solution #2 ([2]; 3 min, trihydrate): 76.89% | Amoxicillin released in solution #3 ([2]; 3 min, trihydrate): 78.12% | Amoxicillin released in solution Mean ([2]; 5 min, trihydrate): 84.17% | Amoxicillin released in solution #1 ([2]; 5 min, trihydrate): 85.25% | Amoxicillin released in solution #2 ([2]; 5 min, trihydrate): 82.78% | Amoxicillin released in solution #3 ([2]; 5 min, trihydrate): 84.47% | Amoxicillin released in solution Mean ([2]; 10 min, trihydrate): 87.43% | Amoxicillin released in solution #1 ([2]; 10 min, trihydrate): 88.15% | Amoxicillin released in solution #2 ([2]; 10 min, trihydrate): 86.80% | Amoxicillin released in solution #3 ([2]; 10 min, trihydrate): 87.34% | Amoxicillin released in solution Mean ([2]; 15 min, trihydrate): 89.71% | Amoxicillin released in solution #1 ([2]; 15 min, trihydrate): 90.61% | Amoxicillin released in solution #2 ([2]; 15 min, trihydrate): 89.05% | Amoxicillin released in solution #3 ([2]; 15 min, trihydrate): 89.49% | Amoxicillin released in solution Mean ([2]; 30 min, trihydrate): 93.77% | Amoxicillin released in solution #1 ([2]; 30 min, trihydrate): 93.27% | Amoxicillin released in solution #2 ([2]; 30 min, trihydrate): 95.75% | Amoxicillin released in solution #3 ([2]; 30 min, trihydrate): 91.85% | Amoxicillin released in solution Mean ([2]; 60 min, trihydrate): 98.50% | Amoxicillin released in solution #1 ([2]; 60 min, trihydrate): 97.15% | Amoxicillin released in solution #2 ([2]; 60 min, trihydrate): 99.70% | Amoxicillin released in solution #3 ([2]; 60 min, trihydrate): 98.65% | Amoxicillin released in solution Mean ([2]; 90 min, trihydrate): 99.31% | Amoxicillin released in solution #1 ([2]; 90 min, trihydrate): 97.76% | Amoxicillin released in solution #2 ([2]; 90 min, trihydrate): 99.52% | Amoxicillin released in solution #3 ([2]; 90 min, trihydrate): 100.66% | Contact Angle Mean ± SD (n = 4) [3]: 110.68 ± 0.23 | Average Particle Size D10 [4]: 1.9 μm | Average Particle Size D50 [4]: 10.1 μm | Average Particle Size D90 [4]: 23.1 μm | Average Particle Size D100 [4]: 44.6 μm

— US9820943B2, “Micronized amoxicillin” (DSM SINOCHEM PHARMACEUTICALS NETHERLANDS B.V., priority 2013, dated 2017)
